For data set [1], the system named is apple scab (Venturia inaequalis). Kind of data set: Venturia test (apples)/preventive. Particulars: for Efficacy in %, found: Table L2, 10 days after the inoculation; for pest or weed control at 100 ppm / pest or weed control at 200 ppm: Venturia inaequalis, 240 h, read-out: Efficacy in %, found.
Data set [2] relates to larvae of the diamondback moth (Plutella xylostella). Kind of data set: Plutella xylostella test. It counts as in vivo. Particulars: 4 ppm a.i. The method, then: Cabbage leaves (Brassica oleracea) are treated by being sprayed into the preparation of the active compound of the desired concentration and are infested with larvae of the diamondback moth (Plutella xylostella) as long as the leaves are still moist. After the specified period of time, the mortality in % is determined. 100% means that all the caterpillars have been killed; 0% means that none of the caterpillars have been killed.

The test system of data set [3] is Alternaria solani. Kind of data set: Alternaria test (tomatoes)/preventive. Format: in vivo. The following applies: for pest or weed control at 100 ppm / pest or weed control at 200 ppm: Alternaria solani, 72 h, read-out: Efficacy in %, found.
The test system of data set [4] is larvae of the fall army worm (Spodoptera frugiperda). Kind of data set: Spodoptera frugiperda test/seed application. Particulars: 0.25 mg a.i./seed, corn seed treatment. It counts as in vivo.
Method: 14 days after sowing the leaves were cut off and infested with larvae of the fall army worm (Spodoptera frugiperda). After the specitied period of time, the mortality in % is determined. 100% means that all the caterpillars have been killed; 0% means that none of the caterpillars have been killed.
The test system of data set [5] is Phytophthora infestans. Kind of data set: whole plant or invertebrate. Format: in vivo. Particulars: 3 days after the inoculation; for pest or weed control at 100 ppm / pest or weed control at 200 ppm: Phytophthora infestans, 72 h; for pest or weed control at 200 ppm: 200 ppm a.i.
Data set [6] concerns Pyrenophora teres. Kind of data set: Pyrenophora teres test (barley)/preventive. It counts as in vivo. The following applies: 8 days after the inoculation.
For data set [7], the system named is Green peach aphid (Myzus persicae). Kind of data set: Myzus persicae test. The following applies: for mortality at 0.8 ppm: 0.8 ppm a.i. It counts as in vivo. The method, then:
Cabbage leaves (Brassica oleracea) which are heavily infested by the Green peach aphid (Myzus persicae) are treated by being sprayed into the preparation of the active compound of the desired concentration. After the specified period of time, the mortality in % is determined. 100% means that all the aphids have been killed; 0% means that none of the aphids have been killed.

Data set [8] deals with Botrytis cinerea. Kind of data set: Botrytis test (beans)/preventive. Particulars: 2 days after the inoculation.
Data set [9] has as its system larvae of the mustard beetle (Phaedon cochleariae). Kind of data set: Phaedon cochleariae larvae test. Format: in vivo. The protocol:
Cabbage leaves (Brassica oleracea) are treated by being sprayed into the preparation of the active compound of the desired concentration and are infested with larvae of the mustard beetle (Phaedon cochleariae) as long as the leaves are still moist. After the specified period of time, the mortality in % is determined. 100% means that all the beetle larvae have been killed; 0% means that none of the beetle larvae have been killed.

For data set [10], the system named is Septoria tritici. Kind of data set: Septoria tritici test (wheat)/preventive. It counts as in vivo. Particulars: 21 days after the inoculation.
Data set [11] relates to Fusarium nivale (var. majus). Kind of data set: Fusarium nivale (var. majus)-test (wheat)/preventive. Particulars: 1000 ppm a.i.; 5 days after the inoculation.
The subject of data set [12] is Fusarium graminearum. It counts as in vivo. Particulars: 1000 ppm a.i.; 5 days after the inoculation.
The mark [13] stands for this setting: 72 h, 4 ppm a.i., after 3 d, read-out: Mortality in % after 3 d, found.
The mark [14] stands for this setting: read-out: Efficacy in %, found, Table I1, 100 ppm a.i.
[15] abbreviates: read-out: Efficacy in %, found, Table I2.
Where [16] appears, read: read-out: Efficacy in %, found, Table I1.
Where [17] appears, read: 72 h, read-out: Mortality in % after 3 d, found.

Where two headings read alike, the source gives them in different places.

Data on 18 compounds can be found in patent US8481456B2 (priority 2009, dated 2013).

Take abamectin [(6.1)]: the “Efficacy in %, found” value is recorded as 53% in [1] (100 ppm a.i.); 51% in data set [1] (200 ppm a.i.); 32% in data set [3] (Table E2, 100 ppm a.i., 3 days after the inoculation). In data set [2] (after 1 d), the “Mortality in % after 1 d, found” value turned out to be 75%. In addition, in [4] (3 d after infestation), the “Efficacy in % 3 d after infestation, found” value was 4.8%.
As for spinosad [(5.2)], the “Efficacy in %, found” value turned out to be 10% in data set [5] (Table I2, 100 ppm a.i.) and 0% in data set [6] (Table J1, 1000 ppm a.i.). The “Mortality in % after 1 d, found” value in data set [2] (after 1 d) is 70%.
The mortality is the percentage killed. Consider `CC1(C)[C@H](C=C(Cl)Cl)[C@H]1C(=O)OCc1c(F)c(F)cc(F)c1F` [(3A.46), transfluthrin], for which the mortality at 4 ppm in [7] (setting [13]) stood at 0%.
On to `CNC(=O)c1cc(C#N)cc(C)c1NC(=O)c1cc(Br)nn1-c1ncccc1Cl` [(26.2), cyantraniliprole (cyazypyr)], for which the “Efficacy in %, found” value in data set [8] (100 ppm a.i.) and in data set [8] (200 ppm a.i.) was 0% each time. Also, the mortality at 0.8 ppm in data set [9] (72 h, 0.8 ppm a.i., after 3 d, read-out: Mortality in % after 3 d, found) is 25%. Further, the pest or weed control at 100 ppm in [1] stood at 0%; in [5] (setting [14]), 30%; in [3] it was 28%. Also, the pest or weed control at 200 ppm in data set [1] is 18%. For the same compound, the mortality at 4 ppm in data set [7] (48 h, 4 ppm a.i., after 2 d, read-out: Mortality in % after 2 d, found) stood at 50%.
With `Cc1c(F)c(F)c(COC(=O)[C@@H]2[C@H](/C=C(\Cl)C(F)(F)F)C2(C)C)c(F)c1F` (racemic) [(3A.43), tefluthrin], the pest or weed control at 100 ppm in [1] came to 23%. Also, in [5] (setting [15]), the pest or weed control at 200 ppm came out at 0%. Also, the “Efficacy in %, found” value in data set [10] (500 ppm a.i.) is reported as 0%.
For `N#C/N=C1\SCCN1Cc1ccc(Cl)nc1` [(4A.6), thiacloprid], the pest or weed control at 200 ppm in [1] turned out to be 4%. Also, the “Efficacy in %, found” value in data set [11] came out at 0%. Besides, the pest or weed control at 100 ppm came to 16% in [5] (setting [14]) and 13% in [3]. In addition, the mortality at 4 ppm in data set [7] (4 ppm a.i., after 4 h, read-out: Mortality in % after 4 h, found) was determined as 20%.
Turning to `N#Cc1nn(-c2c(Cl)cc(C(F)(F)F)cc2Cl)c(N)c1[S+]([O-])C(F)(F)F` (stereo not shown) [(2B.2), fipronil], the pest or weed control at 200 ppm in data set [1] was 8%; in [5] (setting [16]), 47%; in data set [3], 44%. For the same compound, the pest or weed control at 100 ppm in data set [5] (setting [14]) turned out to be 30%; in data set [3] it was 28%. In data set [6] (Table J2, 500 ppm a.i.), the “Efficacy in %, found” value was 0%.
Consider `CC1(C)C(C=C(Cl)Cl)C1C(=O)OC(C#N)c1ccc(F)c(Oc2ccccc2)c1` (stereo not drawn) [(3A.11), β-cyfluthrin], for which the “Mortality in % after 2 d, found” value in data set [2] (after 2 d) was 40%.
In the case of `O=C1C=C(N(Cc2ccc(Cl)nc2)CC(F)F)CO1` [(27.16), 4-{[(6-chloropyridin-3-yl)methyl](2,2-difluoroethyl)amino}furan-2(5H)-one], the pest or weed control at 200 ppm in [1] came to 8%; in [5] (setting [15]), 30%. Further, the “Efficacy in %, found” value in [10] (1000 ppm a.i.) is recorded as 0%.
Take `CN/C(=N\[N+](=O)[O-])NCc1cnc(Cl)s1` [(4A.2), clothianidin]: the mortality at 4 ppm in data set [9] (setting [13]) stood at 0%. In addition, the pest or weed control at 100 ppm in data set [1] came out at 0%; in data set [5] (setting [14]), 30%; in data set [3], 49%. Further, the pest or weed control at 200 ppm in data set [1] was determined as 0%; in data set [3] it was 45%. Besides, the “Efficacy in %, found” value in data set [6] (Table J2, 500 ppm a.i.) amounted to 0%.
Regarding `CNC(=O)Oc1cc(C)c(SC)c(C)c1` [(1A.15), methiocarb], in [9] (setting [17]), the mortality at 20 ppm stood at 35%. Further, the pest or weed control at 100 ppm in data set [1] is 4%; in data set [5] (read-out: Efficacy in %, found, Table I2, 100 ppm a.i.), 16%; in [3], 45%. Also, the pest or weed control at 200 ppm in data set [3] is 47%.
As to `CNC(=O)c1cc(Cl)cc(C)c1NC(=O)c1cc(Br)nn1-c1ncccc1Cl` [(26.1), chloranthraniliprole (rynaxypyr)], the “Efficacy in %, found” value was found to be 0% in data set [8] (100 ppm a.i.); 0% in [8] (200 ppm a.i.); 14% in data set [6] (Table J2, 500 ppm a.i.). Also, the values for the pest or weed control at 100 ppm in data set [1], in [5] (setting [14]) and in data set [3] were 0%, 32% and 37%, respectively. In addition, in [2] (Plutella xylostella, 24 h, after 1 d, read-out: Mortality in % after 1 d, found), the mortality at 4 ppm was found to be 25%. For the same compound, in [7] (48 h, after 2 d, read-out: Mortality in % after 2 d, found), the mortality at 0.8 ppm is 40%. The pest or weed control at 200 ppm in data set [3] was 37%.
Regarding `CC(c1ccc(C(F)(F)F)nc1)S(C)(=O)=NC#N` (stereo not shown) [(27.27), sulfoxaflor], in data set [8] (200 ppm a.i.), the “Efficacy in %, found” value stood at 0%. Moreover, the pest or weed control at 100 ppm in data set [1] and in data set [3] was 0% each time. Moreover, the mortality at 0.8 ppm in data set [7] (24 h, after 1 d, read-out: Mortality in % after 1 d, found) turned out to be 20%. In [3], the pest or weed control at 200 ppm stood at 51%.
Turning to `CC1(C)C(C=C(Cl)Cl)C1C(=O)OC(C#N)c1ccc(F)c(Oc2ccccc2)c1` (stereo not shown) [(3A.10), cyfluthrin], the “Efficacy in %, found” value in data set [6] (Table J2, 500 ppm a.i.) is 0%.
As to `CS/C(C)=N\OC(=O)N(C)SN(C)C(=O)O/N=C(\C)SC` [(1A.21), thiodicarb], in data set [11], the “Efficacy in %, found” value came out at 0%. Further, in data set [3], the pest or weed control at 200 ppm is 52%.
With `CN1COCN(Cc2cnc(Cl)s2)/C1=N\[N+](=O)[O-]` [(4A.7), thiamethoxam], the “Efficacy in %, found” value in data set [8] (100 ppm a.i.) is given as 0%; in [6] (Table J1, 1000 ppm a.i.), 0%. The values for the pest or weed control at 100 ppm in data set [1] and in data set [5] (setting [14]) were 18% and 30%, respectively. In addition, the pest or weed control at 200 ppm is 25% in data set [1] and 64% in data set [3] (Table E1, 200 ppm a.i., 3 days after the inoculation).
Take `O=[N+]([O-])NC1=NCCN1Cc1ccc(Cl)nc1` [(4A.4), imidacloprid]: in [12], the “Efficacy in %, found” value is reported as 0%. Moreover, in data set [9] (24 h, 20 ppm a.i., after 1 d, read-out: Mortality in % after 1 d, found), the mortality at 20 ppm was 0%. Besides, in [3], the pest or weed control at 100 ppm stood at 13% and the pest or weed control at 200 ppm came to 30%. Also, the “Efficacy in % 1 d after infestation, found” value in [4] (1 d after infestation) was determined as 0%.
Turning to `C/C(=N\C#N)N(C)Cc1ccc(Cl)nc1` [(4A.1), acetamiprid], the “Efficacy in %, found” value in data set [8] (100 ppm a.i.) is reported as 0%. Further, the mortality at 4 ppm in data set [9] (setting [17]) came out at 0%; in [7] (24 h, read-out: Mortality in % after 1 d, found), 10%. In [5] (setting [16]), the pest or weed control at 200 ppm is 27%.
